Read-outs that look alike come from different tables or passages of the source.
How the values were obtained:
native rhodanese = target: T1, native rhodanese (Bos taurus, UniProt P00586); test: native rhodanese enzymatic activity counter-screen; type: biochemical
T1 sequence (P00586 1-297): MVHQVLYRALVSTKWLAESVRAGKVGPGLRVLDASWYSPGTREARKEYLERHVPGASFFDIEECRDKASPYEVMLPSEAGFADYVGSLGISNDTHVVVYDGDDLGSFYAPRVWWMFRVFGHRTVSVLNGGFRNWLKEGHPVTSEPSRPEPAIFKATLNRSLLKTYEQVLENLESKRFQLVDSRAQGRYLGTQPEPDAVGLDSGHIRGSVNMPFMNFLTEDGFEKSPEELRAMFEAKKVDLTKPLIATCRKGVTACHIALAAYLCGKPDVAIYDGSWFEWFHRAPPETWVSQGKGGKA
Experimental: Counter-screening compounds for inhibition of native rhodanese enzymatic activity. Reagent Preparations & Assay Protocol: Reagents were identical to those used in the GroEL/ES-dRho refolding assay described above; however, the assay protocol differed in the sequence of compound addition to the wells. Compounds were pin-transferred after 50 minute incubation for the refolding cycle, but prior to the addition of the thiocyanate enzymatic assay stock. Thus, the refolding reactions were allowed to proceed for 50 min at 37° C. in the absence of test compounds, but the enzymatic activity of the refolded rhodanese reporter enzyme was monitored in the presence of test compounds (inhibitor concentration range during the enzymatic reporter reaction is 100 μM to 46 nM—3-fold dilutions). IC50 values for the rhodanese reporter enzyme were determined as described above. Results presented represent the averages of IC50 values obtained from at least four replicates.
All compounds were counter-screened for inhibiting the enzymatic activity of the native Rho reporter enzyme as per our previously reported procedure. Results presented represent the averages of IC50 values obtained from at least four replicates.

[1] = tested on: Acinetobacter baumannii strain 2208 (ATCC 19606); test: bacterial proliferation assay, A. baumannii; type: cell-based; conditions: ATCC19606, read-out: Bacterial Proliferation EC50 A. baumannii
Experimental: (§1) All compounds were evaluated for inhibiting the proliferation of E. coli and each of the ESKAPE bacteria. Results presented represent the averages of EC50 values obtained from at least four replicates. Evaluating compounds for inhibition of bacterial cell proliferation.
(§2) Growth Media: E. coli were grown with LB medium and all ESKAPE bacteria were grown in Brain Heart Infusion (BHI) medium (Becton, Dickinson and Company), with all liquid cultures supplemented with 25 mg/L Ca^2+ and 12.5 mg/L Mg^2+ to mimic physiological free concentrations of these cations. A 10 mg/mL Ca^2+ stock solution was prepared by dissolving 1.84 g of CaCl2.2H2O in 50 mL of deionized water, and a 10 mg/mL Mg^2+ stock solution was prepared by dissolving 4.18 g of MgCl2.6H2O in 50 mL deionized water—filter sterilized using 0.2 μm cellulose-acetate filters. 2.5 mL of the sterile 10 mg/mL Ca^2+ stock and 1.25 mL of the sterile 10 mg/mL Mg^2+ stock solutions were added per 1 L of autoclaved LB or BHI media to obtain 25 mg/L Ca^2+ and 12.5 mg/L Mg^2+ ions, respectively.
(§3) General Assay Protocol: Stock bacterial cultures were streaked onto LB or BHI agar plates and grown overnight at 37° C. Fresh aliquots of cation supplemented media were inoculated with single bacterial colonies and the cultures were grown overnight at 37° C. with shaking (240 rpm). The following morning, cultures were diluted 10-fold into fresh media and grown at 37° C. until bacteria had reached mid-log phase growth (OD600˜0.4-0.6). The cultures were then diluted into fresh media to achieve final OD600 readings of 0.017. Aliquots of these diluted cultures (30 μL) were added to clear, flat-bottom 384-well polystyrene plates that were previously stamped with 0.5 μL of test compounds in 20 μL of media (yielding initial OD600=0.01 bacterial cultures). All compounds were tested in dose-response with concentration ranges during the proliferation assays from 100 μM to 46 nM (3-fold dilution series). A second set of baseline control plates were prepared analogously, but without any bacteria added, to correct for possible compound absorbance and/or precipitation. […] Plates were then read at 600 nm using a Molecular Devices SpectraMax Plus384 microplate reader. […] Results presented represent the averages of EC50 values obtained from at least four replicates.
(§4) Evaluating analogs for inhibiting the growth of E. coli and the ESKAPE bacteria. Analogs were initially tested for antibacterial efficacy against representative strains of antibiotic-sensitive E. coli and the ESKAPE bacteria. To determine compound efficacy, bacterial proliferation assays were carried out in liquid media culture supplemented with physiological concentrations of free calcium and magnesium cations. For these assays, bacterial cultures (OD600=0.01) were exposed to test compounds in 8-point, 3-fold dilution series (100 μM to 46 nM concentration range), in 384-well plates. After addition of compounds to cultures, the plates were sealed with Breathe-Easy gas permeable membranes and allowed to grow to mid-log phase (OD600˜0.4-0.6), whereupon final OD600 readings were taken to assess for bacterial growth and inhibition.

[2] = tested on: Klebsiella pneumoniae strain NCTC 9633 (ATCC #13883); test: bacterial proliferation assay, K. pneumoniae; type: cell-based; conditions: for EC50: read-out: Bacterial Proliferation EC50 K. pneumoniae
Experimental: as §1, §2, §3, §4

[3] = compounds added after refolding, read-out: Native Rho Activity IC50

| Structure (SMILES) | IC50 (native rhodanese; [3]) [µM] | EC50 [1] [µM] | EC50 ([2]; Klebsiella pneumoniae) [µM] | IC50 (native rhodanese) [µM] | inhibition of K. pneumoniae in words [2] | EC50 [2] [µM] |
| --- | --- | --- | --- | --- | --- | --- |
| O=C(N/N=C/c1cccc2ccccc12)c1ccccc1 [Compound 34, N′-(naphthalen-1-ylmethylene)benzohydrazide] | > 100 | > 100 | > 100 |  |  |  |
| CCN(CC)S(=O)(=O)c1cccc(C(=O)N/N=C/c2ccc(O)c3ncccc23)c1 [Compound 12, N,N-diethyl-3-(2-((8-hydroxyquinolin-5-yl)methylene)hydrazine-1-carbonyl)benzenesulfonamide] | 81 | > 100 | > 100 |  |  |  |
| O=C(N/N=C/c1ccc(O)c2ncccc12)c1cccc(Oc2ccccc2)c1 [Compound 11, N′-((8-hydroxyquinolin-5-yl)methylene)-3-phenoxybenzohydrazide] | 85 | > 100 | > 100 |  |  |  |
| O=[N+]([O-])c1ccc(O)c2ncccc12 [Nitroxoline, reference compound] | 2 | 2.5 | 2.8 |  |  |  |
| O=C1CN(/N=C/c2ccc([N+](=O)[O-])o2)C(=O)N1 [Nitrofurantoin, reference compound] |  | > 100 | 40 | > 100 |  |  |
| O=C(N/N=C/c1ccc([N+](=O)[O-])o1)c1ccc(O)cc1 [Nifuroxazide, reference compound] |  | > 100 | 37 | 69 |  |  |
| O=C(N/N=C/c1ccc(O)c2ncccc12)c1ccc(Cl)s1 [Compound 4, 5-chloro-N′-((8-hydroxyquinolin-5-yl)methylene)thiophene-2-carbohydrazide] | 14 | > 100 | > 100 |  |  |  |
| CN(C)c1ccc(C(=O)N/N=C/c2ccc([N+](=O)[O-])o2)cc1 [Compound 21, 4-(dimethylamino)-N′-((5-nitrofuran-2-yl)methylene)benzohydrazide] | > 100 | > 100 | > 100 |  |  |  |
| O=C(N/N=C/c1ccc(O)c2ncccc12)c1ccc(O)cc1 [Compound 7, 4-hydroxy-N′-((8-hydroxyquinolin-5-yl)methylene)benzohydrazide] | 72 | 71 | 87 |  |  |  |
| O=C(N/N=C/c1ccc([N+](=O)[O-])o1)c1cccc(Oc2ccccc2)c1 [Compound 24, N′-((5-nitrofuran-2-yl)methylene)-3-phenoxybenzohydrazide] | 65 | > 100 | > 100 |  |  |  |
| O=C(N/N=C/c1ccc(O)c2ncccc12)c1ccc(NS(=O)(=O)c2ccc(Br)cc2)cc1 [Compound 14, 4-bromo-N-(4-(2-((8-hydroxyquinolin-5-yl)methylene)hydrazine-1-carbonyl)phenyl)benzenesulfonamide] | > 100 | 84 | > 100 |  |  |  |
| CN(C)c1ccc(C(=O)N/N=C/c2ccc(O)c3ncccc23)cc1 [Compound 8, 4-(dimethylamino)-N′-((8-hydroxyquinolin-5-yl)methylene)benzohydrazide] | 67 | > 100 | > 100 |  |  |  |
| O=C(N/N=C/c1ccc([N+](=O)[O-])o1)c1ccc(NS(=O)(=O)c2ccc(Br)cc2)cc1 [Compound 27, 4-bromo-N-(4-(2-((5-nitrofuran-2-yl)methylene)hydrazine-1-carbonyl)phenyl)benzenesulfonamide] |  | > 100 | > 100 | 44 |  |  |
| O=C(N/N=C/c1ccc([N+](=O)[O-])o1)c1ccc(Cl)s1 [Compound 17, 5-chloro-N′-((5-nitrofuran-2-yl)methylene)thiophene-2-carbohydrazide] | 56 | 72 | 19 |  | moderate inhibitors |  |
| O=C(N/N=C/c1ccc([N+](=O)[O-])o1)c1ccncc1 [Compound 19, N′-((5-nitrofuran-2-yl)methylene)isonicotinohydrazide] | 38 | 54 | 42 |  |  |  |
| COc1ccc(C(=O)N/N=C/c2cccc3ncccc23)cc1 [Compound 31, 4-methoxy-N′-(quinolin-5-ylmethylene)benzohydrazide] | > 100 | > 100 | > 100 |  |  |  |
| COc1ccc(C(=O)N/N=C/c2ccc(O)c3ncccc23)cc1 [Compound 1, N′-((8-hydroxyquinolin-5-yl)methylene)-4-methoxybenzohydrazide] | 98 | > 100 |  |  |  | 85 |

Reference: US20220009914A1, “Analogs of Nitrofuran Antibiotics to Combat Resistance” (The Trustees of Indiana University, priority 2020, published 2022)
